Measured values taken from patent publication US20100035929A1, “UNNATURAL DISPYRIN ANALOGUES, PREPARATION AND USES THEREOF” (priority 2008, published 2010).
Like-named read-outs stand apart in the source and are kept apart here.

Key:
human H3 receptor [1] = target: T1, human H3 receptor (Homo sapiens, UniProt Q9Y5N1); test: H3 affinity, radioligand binding assay employing [3H](R)-α-methylhistamine
Excerpt: (§1) In one aspect, H3 affinity (Ki) and inhibition (IC50) can be determined in 5-point concentration response curves. Using data obtained from such methods, SAR can be established.

human H3 receptor [2] = target: T1, human H3 receptor; test: H3 antagonist activity / inhibition (IC50); format: biochemical
Excerpt: as §1

[3] = test system: other GPCRs and ion channels; test: MDS Pharma Services radioligand binding panel, initial screen at single 10 μM concentration: other targets; details: at 10 μM; none with significant activity (no Kis or IC50s<10 μM)
Protocol: (§2) Multiple screening avenues were pursued to identify the biological activity of dispyrin. Dispyrin was submitted to the screening deck of the Molecular Library Screening Network (MLSCN) and was evaluated against several GPCR targets (M1, M4, D1/D5, mGluR5, mGluR4) in agonist, antagonist and potentiator mode. Utilizing panels of radioligand binding assays from several companies, dispyrin was evaluated against >200 discrete molecular targets over the course of two months. The MDS Pharma Services panel identified multiple activities for dispyrin. […] Other modest activities at the 50-60% range at 10 u.M included other GPCRs and ion channels, but none with significant activity (no Kis or IC50s<10 μM).

[4] = test system: calcium and potassium ion channels, including hERG; test: MDS Pharma Services radioligand binding panel, initial screen at single 10 μM concentration: ion channels; details: human, read-out: inhibition of a number of calcium and potassium ion channels, including hERG
Protocol: as §2

[5] = 5-point concentration response curves, read-out: H3 Ki
[6] = 5-point concentration response curves, read-out: H3 IC50

T1 sequence (Q9Y5N1 whole entry): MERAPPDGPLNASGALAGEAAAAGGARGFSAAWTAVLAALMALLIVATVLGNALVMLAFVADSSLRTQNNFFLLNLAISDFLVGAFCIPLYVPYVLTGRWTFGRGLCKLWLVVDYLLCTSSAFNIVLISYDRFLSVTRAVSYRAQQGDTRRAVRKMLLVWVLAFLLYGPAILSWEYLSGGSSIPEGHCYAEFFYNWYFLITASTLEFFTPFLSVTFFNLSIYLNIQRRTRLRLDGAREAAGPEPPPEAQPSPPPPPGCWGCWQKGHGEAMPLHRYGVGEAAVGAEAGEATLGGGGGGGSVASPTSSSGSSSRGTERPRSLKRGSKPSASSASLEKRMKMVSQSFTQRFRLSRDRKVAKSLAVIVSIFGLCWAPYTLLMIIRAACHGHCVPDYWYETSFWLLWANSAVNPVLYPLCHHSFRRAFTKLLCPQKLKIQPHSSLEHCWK

Molecule | Ki (human H3 receptor [1]; [5]) [nM] | IC50 (human H3 receptor [2]; [6]) [nM] | further results
CN(C)CCOc1ccc(CCNC(=O)c2cc(Br)c[nH]2)cc1Br [4-bromo-N-(3-bromo-4-(2-(dimethylamino)ethoxy)phenethyl)-1H-pyrrole-2-carboxamide] | 1600 | 3700 | 
O=C(NCCc1ccc(OCCN2CCCC2)c(Cl)c1)c1cc(Br)cs1 [4-bromo-N-(3-chloro-4-(2-(pyrrolidin-1-yl)ethoxy)phenethyl)thiophene-2-carboxamide] | 160 | 350 | 
CN1CCCC(COc2ccc(CCNC(=O)c3cc(Br)cs3)cc2Br)C1 (stereo not shown) [4-bromo-N-(3-bromo-4-((1-methylpiperidin-3-yl)methoxy)phenethyl)thiophene-2-carboxamide] | 1200 | 1700 | 
O=C(NCCc1ccc(OCCN2CCCC2)c(Br)c1)c1ccc(Br)o1 [5-bromo-N-(3-bromo-4-(2-(pyrrolidin-1-yl)ethoxy)phenethyl)furan-2-carboxamide] | 170 | 390 | 
CN(C)CCCOc1ccc(CCNC(=O)c2cc(Br)cs2)cc1Br [4-bromo-N-(3-bromo-4-(3-(dimethylamino)propoxy)phenethyl)thiophene-2-carboxamide] | 1600 | 3600 | 
O=C(NCCc1ccc(OCCN2CC[C@@H](F)C2)c(Br)c1)c1cc(Br)cs1 | 1100 | 2100 | 
CN(C)CCOc1ccc(CCNC(=O)c2ccc(Br)o2)cc1Br [5-bromo-N-(3-bromo-4-(2-(dimethylamino)ethoxy)phenethyl)furan-2-carboxamide] | 2700 | 5900 | 
CN(C)CCOc1ccc(CCNC(=O)c2cc(Br)cs2)cc1Br [4-bromo-N-(3-bromo-4-(2-(dimethylamino)ethoxy)phenethyl)thiophene-2-carboxamide] | 670 | 1500 | 
CN(C)CCCOc1ccc(CCNC(=O)c2ccc(Br)o2)cc1Br [5-bromo-N-(3-bromo-4-(3-(dimethylamino)propoxy)phenethyl)furan-2-carboxamide] | 2200 | 4800 | 
O=C(NCCc1ccc(OCCN2CCCC2)c(Br)c1)c1cc(Br)c[nH]1 [4-bromo-N-(3-bromo-4-(2-(pyrrolidin-1-yl)ethoxy)phenethyl)-1H-pyrrole-2-carboxamide] | 190 | 430 | 
O=C(NCCc1ccc(OCCN2CCCC2)c(Br)c1)c1cccc(Br)c1 [3-bromo-N-(3-bromo-4-(2-(pyrrolidin-1-yl)ethoxy)phenethyl)benzamide] | 210 | 450 | 
CN1CCCC(COc2ccc(CCNC(=O)c3ccc(Br)o3)cc2Br)C1 (stereo not shown) [5-bromo-N-(3-bromo-4-((1-methylpiperidin-3-yl)methoxy)phenethyl)furan-2-carboxamide] | 2100 | 4500 | 
O=C(NCCc1ccc(OCCN2CCCC2)c(Br)c1)c1cc(Br)cs1 [4-bromo-N-(3-bromo-4-(2-(pyrrolidin-1-yl)ethoxy)phenethyl)thiophene-2-carboxamide] | 80 | 180 | 
CN1CCCC(COc2ccc(CCNC(=O)c3cc(Br)c[nH]3)cc2Br)C1 (stereo not shown) [4-bromo-N-(3-bromo-4-((1-methylpiperidin-3-yl)methoxy)phenethyl)-1H-pyrrole-2-carboxamide] | 1300 | 2900 | 
C[C@@H]1CCCN1CCOc1ccc(CCNC(=O)c2cc(Br)cs2)cc1Br [(R)-4-bromo-N-(3-bromo-4-(2-(2-methylpyrrolidin-1-yl)ethoxy)phenethyl)thiophene-2-carboxamide] | 310 | 710 | 
C[C@H]1CCCN1CCOc1ccc(CCNC(=O)c2cc(Br)cs2)cc1Br [(S)-4-bromo-N-(3-bromo-4-(2-(2-methylpyrrolidin-1-yl)ethoxy)phenethyl)thiophene-2-carboxamide] | 330 | 750 | 
O=C(NCc1ccc(OCCN2CCCC2)c(Cl)c1)c1cc(Br)cs1 [4-bromo-N-(3-chloro-4-(2-(pyrrolidin-1-yl)ethoxy)benzyl)thiophene-2-carboxamide] | 1100 | 2400 | 

Continued, in another order:

Ki (human H3 receptor [1]; [5]) [nM] | IC50 (human H3 receptor [2]; [6]) [nM] | Molecule | further results
270 | 560 | O=C(NCCc1ccc(OCCN2CCCC2)c(Br)c1)c1cccc(C(F)(F)F)n1 [N-(3-bromo-4-(2-(pyrrolidin-1-yl)ethoxy)phenethyl)-6-(trifluoromethyl)picolinamide] | 
910 | 2100 | CN1CCCC(COc2ccc(CCNC(=O)c3cccn3C)cc2Br)C1 (stereo not shown) [N-(3-bromo-4-((1-methylpiperidin-3-yl)methoxy)phenethyl)-1-methyl-1H-pyrrole-2-carboxamide] | 
1100 | 2400 | CN(C)CCCOc1ccc(CCNC(=O)c2cc(Br)c[nH]2)cc1Br [dispyrin, 4-bromo-N-(3-bromo-4-(3-(dimethylamino)propoxy)phenethyl)-1H-pyrrole-2-carboxamide] | other modest activities (other GPCRs and ion channels) [3]: 50-60%; Ki (human H3 receptor [1]; radioligand binding assay employing [3H](R)-α-methylhistamine, read-out: Ki, affinity for the human H3 receptor): 1040 nM; inhibition at 10 µM [4]: 50 to 60%; IC50 (human H3 receptor [2]; read-out: IC50, human H3 antagonist): 2350 nM; IC50 (human H3 receptor [2]; text of b259, read-out: IC50, human H3 antagonist): 2350 nM
1500 | 3400 | CN(C)CCOc1ccc(CCNC(=O)c2ccc[nH]2)cc1Br [N-(3-bromo-4-(2-(dimethylamino)ethoxy)phenethyl)-1H-pyrrole-2-carboxamide] | 
2100 | 4500 | CN(C)CCOc1ccc(CCNC(=O)c2cccn2C)cc1Br [N-(3-bromo-4-(2-(dimethylamino)ethoxy)phenethyl)-1-methyl-1H-pyrrole-2-carboxamide] | 
116 | 260 | O=C(NCCc1ccc(OCCN2CCCC2)c(Br)c1)c1nccs1 [N-(3-bromo-4-(2-(pyrrolidin-1-yl)ethoxy)phenethyl)thiazole-2-carboxamide] | 
1700 | 3900 | CN(C)CCCOc1ccc(CCNC(=O)c2cccn2C)cc1Br [N-(3-bromo-4-(3-(dimethylamino)propoxy)phenethyl)-1-methyl-1H-pyrrole-2-carboxamide] | 
430 | 970 | O=C(NCCc1ccc(OCCN2CCCC2)c(Br)c1)c1nnc[nH]1 [N-(3-bromo-4-(2-(pyrrolidin-1-yl)ethoxy)phenethyl)-4H-1,2,4-triazole-3-carboxamide] | 
150 | 380 | O=C(NCCc1ccc(OCCN2CCCC2)c(Br)c1)c1ccc[nH]1 [N-(3-bromo-4-(2-(pyrrolidin-1-yl)ethoxy)phenethyl)-1H-pyrrole-2-carboxamide] | 
1100 | 2500 | O=C(NCCc1ccc(OCCN2CC[C@H](F)C2)c(Br)c1)c1cc(Br)cs1 [(S)-4-bromo-N-(3-bromo-4-(2-(3-fiuoropyrrolidin-1-yl)ethoxy)phenethyl)thiophene-2-carboxamide] | 
130 | 390 | Cn1cccc1C(=O)NCCc1ccc(OCCN2CCCC2)c(Br)c1 [N-(3-bromo-4-(2-(pyrrolidin-1-yl)ethoxy)phenethyl)-1-methyl-1H-pyrrole-2-carboxamide] | 
32 | 72 | N-(3-bromo-4-(2-(pyrrolidin-1- yl)ethoxy)phenethyl)thiazole-5-carboxamide | 
1300 | 2900 | CN(C)CCCOc1ccc(CCNC(=O)c2ccc[nH]2)cc1Br [N-(3-bromo-4-(3-(dimethylamino)propoxy)phenethyl)-1H-pyrrole-2-carboxamide] | 
37 | 83 | O=C(NCCc1ccc(OCCN2CCCC2)c(Br)c1)c1cnco1 [N-(3-bromo-4-(2-(pyrrolidin-1-yl)ethoxy)phenethyl)oxazole-5-carboxamide] | 
1500 | 3600 | CN1CCCC(COc2ccc(CCNC(=O)c3ccc[nH]3)cc2Br)C1 (stereo not shown) [N-(3-bromo-4-((1-methylpiperidin-3-yl)methoxy)phenethyl)-1H-pyrrole-2-carboxamide] | 
250 | 550 | O=C(NCCc1ccc(OCCN2CCCC2)c(Br)c1)c1cccc(Cl)c1 [N-(3-bromo-4-(2-(pyrrolidin-1-yl)ethoxy)phenethyl)-3-chlorobenzamide] | 
440 | 980 | O=C(NCCc1ccc(OCCN2CCCC2)c(Br)c1)c1cccc(C(F)(F)F)c1 [N-(3-bromo-4-(2-(pyrrolidin-1-yl)ethoxy)phenethyl)-3-(trifluoromethyl)benzamide] | 
